Assay results taken from PubChem BioAssay (NCI).
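Method: 48-hour compound exposure of cells in 96-well plates, five concentrations, linear interpolation of endpoints. At the GI50, growth is halved. TGI: concentration producing complete growth inhibition.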

Key:
Test in all cases: NCI-60 cell line screen, 48 h
[1] = system: SK-MEL-28 melanoma
[2] = system: UACC-257 melanoma
[3] = system: NCI-H460 lung
[4] = system: MOLT-4 leukemia
[5] = system: SNB-19 CNS
[6] = system: IGROV1 ovarian
[7] = system: OVCAR-4 ovarian
[8] = system: HT29 colon
[9] = system: SK-MEL-5 melanoma
[10] = system: RPMI-8226 leukemia

SMILES	GI50 [1]	TGI [1]	GI50 [2]	TGI [2]	GI50 [3]	TGI [3]	GI50 [4]	TGI [4]	GI50 [5]	TGI [5]	GI50 [6]	TGI [6]	GI50 [7]	TGI [7]	GI50 [8]	TGI [8]	GI50 [9]	TGI [9]	GI50 [10]	TGI [10]
O=C(Nc1ccc(Cl)cc1)c1cc(S(=O)(=O)Nc2nnc(-c3ccccc3)c(-c3ccccc3)n2)c(SCc2ccccc2)cc1Cl	28.9 µM	> 73.6 µM	21.9 µM	61.3 µM	25.2 µM	81.8 µM	17.4 µM	> 60.4 µM	37.9 µM	> 67 µM	33.6 µM	> 95.4 µM	49.8 µM	> 85.4 µM	28.3 µM	> 82 µM	18.1 µM	39.4 µM		
c1ccc2cc(Cn3c[n+](Cc4ccc5ccccc5c4)c4ccccc43)ccc2c1	1.52 µM	3.11 µM	1.39 µM	2.97 µM									1.19 µM	2.61 µM			0.556 µM	1.86 µM		
CC(=O)[C-](C(C)=O)c1ccccc1.CC(=O)[C-](C(C)=O)c1ccccc1.CC[O-].CC[O-].[Ti+4]	> 100 µM	> 100 µM	> 100 µM	> 100 µM			> 100 µM	> 100 µM	> 100 µM	> 100 µM	> 100 µM	> 100 µM	> 100 µM	> 100 µM	> 100 µM	> 100 µM	> 100 µM	> 100 µM	> 100 µM	> 100 µM
Cc1cc(C)c2c(SCc3ccc(Cl)cc3Cl)nc(N)nc2n1		> 100 µM		38.2 µM		67.5 µM				> 100 µM		> 100 µM		> 100 µM		> 100 µM		> 100 µM		> 100 µM
COc1ccc(C(=O)C(C(=O)C(=O)Nc2nccs2)c2ccc(OC)cc2)cc1 (configuration not stated)		> 100 µM		> 100 µM		> 100 µM		> 100 µM		> 100 µM		> 100 µM				> 100 µM		> 100 µM		> 100 µM
CN1CCN(c2ccc(NC3=C(Cl)C(=O)c4ncccc4C3=O)cc2C#N)CC1	1.86 µM	3.26 µM	1.73 µM	3.29 µM	13 µM	30.9 µM	1.04 µM	5.31 µM	11 µM	23 µM	1.34 µM	2.82 µM	1.09 µM	2.36 µM	2.16 µM	5.14 µM	1.83 µM	3.38 µM		
O=c1c2ccccc2nc(-c2ccccc2)n1O		> 100 µM		> 100 µM		> 100 µM				> 100 µM		> 100 µM		> 100 µM		> 100 µM		> 100 µM		> 100 µM
[C-]#[N+][C@]12C(=O)[C@H](CCC1(C)C)C(C)(C)[C@H]1C(=O)N(C)c3cccc2c31	> 100 µM	> 100 µM	4.07 µM	> 100 µM	5.02 µM	> 100 µM	10.3 µM	> 100 µM	70 µM	> 100 µM			3.82 µM	> 100 µM	17.6 µM	> 100 µM	9.08 µM	> 100 µM	13.1 µM	> 100 µM
OCC#Cc1ccccc1C#Cc1ccc(C#Cc2ccccc2C#CCO)s1	20.5 µM	46.8 µM	22.1 µM	42.7 µM	24.7 µM	91.5 µM			22.1 µM	42.7 µM	13.7 µM	34.2 µM	26.4 µM	> 100 µM			16.3 µM	31.2 µM	22.2 µM	49.1 µM
c1cc(-c2cn[nH]c2)cc(-c2cn[nH]c2)c1		> 100 µM		> 100 µM		> 100 µM		> 100 µM		> 100 µM		> 100 µM		> 100 µM				> 100 µM		> 100 µM
O=C(NNS(=O)(=O)c1ccc(F)cc1)c1cccnc1Nc1ccc(Cl)cc1Cl	89.2 µM	> 100 µM	11.8 µM	51.9 µM	31.4 µM	> 100 µM	22.9 µM	> 100 µM	29.2 µM	> 100 µM			38 µM	> 100 µM	22.1 µM	57.8 µM	25.3 µM	86 µM		
Cc1nc(Nc2ccccc2)sc1C(=O)NNc1ccc([N+](=O)[O-])cc1[N+](=O)[O-]		> 100 µM		> 100 µM		> 100 µM		69.7 µM		> 100 µM		> 100 µM		> 100 µM		> 100 µM		68.5 µM		
N#CC(C(=N/NC(N)=S)/C(=N/NC(N)=S)C(C#N)c1ccc(Cl)cc1)c1ccc(Cl)cc1 (configuration not stated)		> 100 µM		> 100 µM		> 100 µM		> 100 µM		> 100 µM		> 100 µM		> 100 µM		> 100 µM		> 100 µM		
Cc1cc(N(CCC#N)CCC#N)ccc1N=Nc1cccc(Cl)c1		> 100 µM		> 100 µM		> 100 µM				> 100 µM				> 100 µM		> 100 µM		> 100 µM		> 100 µM
O=C(CNc1ncco1)Nc1ccc(S(=O)(=O)c2ccc(NC(=O)CNc3ncco3)cc2)cc1	2.38 µM	5.51 µM	1.85 µM	4.86 µM	2.02 µM	4.29 µM	3.13 µM	8.45 µM	2.88 µM	12.8 µM	1.76 µM	5.32 µM					1.52 µM	2.88 µM	1.11 µM	3.01 µM
Cc1cccc(C)c1NC(=O)CCC(=O)NC(N)=S				> 100 µM		> 100 µM		> 100 µM		> 100 µM		> 100 µM				> 100 µM		> 100 µM		> 100 µM
CCCCCCNc1nc(N2CCOCC2)c2[nH]c(NCCCCCC)nc2n1	1.65 µM	3.01 µM	1.62 µM	3.16 µM	1.55 µM	2.97 µM			1.8 µM	3.41 µM			1.43 µM	2.87 µM			1.42 µM	2.72 µM	1.91 µM	5.42 µM
